Drawing on patent US9758527B2, “Cyclohexene derivative, preparation method therefor, and pharmaceutical composition for preventing or treating metabolic diseases, containing same as active ingredient” (HYUNDAI PHARM CO., LTD., priority 2014, dated 2017), this text covers EC50 for 20 compounds.

Structures are written as SMILES. Counter-ions that a name gives are not always drawn. Like-named read-outs stand apart in the source and are kept apart here.

The target in this test is T1, G protein-coupled receptor 119 (GPR-119) (Mesocricetus auratus, UniProt A0A1U8CD06).
T1 construct: hamster-derived β-cells containing G protein-coupled receptor 119 (GPR-119), HIT-T15 cells; host or cells: HIT-T15 (hamster pancreatic β-cells)
T1 sequence (A0A1U8CD06 1-334): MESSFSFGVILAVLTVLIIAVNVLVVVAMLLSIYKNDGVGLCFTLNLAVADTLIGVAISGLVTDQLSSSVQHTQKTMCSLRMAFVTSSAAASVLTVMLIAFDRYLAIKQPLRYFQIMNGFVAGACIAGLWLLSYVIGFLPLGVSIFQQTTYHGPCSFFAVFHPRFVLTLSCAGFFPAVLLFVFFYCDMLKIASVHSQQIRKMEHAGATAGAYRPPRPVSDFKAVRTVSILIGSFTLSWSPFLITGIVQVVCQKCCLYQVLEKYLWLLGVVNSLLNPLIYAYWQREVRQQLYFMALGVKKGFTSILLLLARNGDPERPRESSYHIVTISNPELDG
Description: Evaluation of cAMP activity in HIT-T15 cells (HTRF cAMP dynamic kit). The format is cell-based, hamster. The following applies: cAMP activation. In short, it runs like this:
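HIT-T15 cells, 60,000/well, treated next day with compound at six concentrations ([…]) for 1 h at 37° C. Lysate cAMP quantified by HTRF competitive immunoassay (D2-cAMP, cryptate anti-cAMP); activity taken as change in FRET signal relative to DMSO.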
(In general: Time-resolved FRET reads energy transfer from a long-lived donor to a nearby acceptor.)

Where [1] appears, read: 1 h at 37° C., six concentrations, read-out: EC50.

In the case of `CCc1cnc(N2CCC(COc3ccc(C4=CCC(C(=O)N5CCCCC5)CC4)cc3)CC2)nc1` (stereo not shown) [Example 167, (4-(4-((1-(5-ethylpyrimidin-2-yl)piperidin-4-yl)methoxy)phenyl)cyclohex-3-enyl)(piperidin-1-yl)methanone hydrochloride], the EC50 under setting [1] was 14 nM.

Regarding `CCc1cnc(N2CCC(COc3ccc(C4=CCC(C(=O)N5CCN(CCO)CC5)CC4)cc3)CC2)nc1` (stereo not shown) [Example 172, (4-(4-((1-(5-ethylpyrimidin-2-yl)piperidin-4-yl)methoxy)phenyl)cyclohex-3-enyl)(4-(2-hydroxyethyl)piperazin-1-yl)methanone], the EC50 under setting [1] came out at 38 nM. As to `CCc1cnc(N2CCC(COc3ccc(C4=CCC(C(=O)N5CCC(CCO)CC5)CC4)cc3)CC2)nc1` (stereo not shown) [Example 173, (4-(4-((1-(5-ethylpyrimidin-2-yl)piperidin-4-yl)methoxy)phenyl)cyclohex-3-enyl)(4-(2-hydroxyethyl)piperidin-1-yl)methanone], the EC50 under setting [1] stood at 18 nM. On to `CCc1cnc(N2CCC(COc3ccc(C4=CCC(C(=O)N(CC)CCO)CC4)cc3)CC2)nc1` (stereo not shown) [Example 175, N-ethyl-4-(4-((1-(5-ethylpyrimidin-2-yl)piperidin-4-yl)methoxy)phenyl)-N-(2-hydroxyethyl)cyclohex-3-enecarboxamide], for which the concentration for a half-maximal effect (EC50) runs as follows: under setting [1], 7 nM; (read-out: EC50 value) at most 50 nM. `CCc1cnc(N2CCC(COc3ccc(C4=CCC(C(=O)NCC(C)(C)CO)CC4)cc3)CC2)nc1` (stereo not shown) [Example 177, 4-(4-((1-(5-ethylpyrimidin-2-yl)piperidin-4-yl)methoxy)phenyl)-N-(3-hydroxy-2,2-dimethylpropyl)cyclohex-3-enecarboxamide]: the EC50 under setting [1] came out at 38 nM. In the case of `CCc1cnc(N2CCC(COc3ccc(C4=CCC(C(=O)N(CCO)CCO)CC4)cc3)CC2)nc1` (stereo not shown) [Example 181, 4-(4-((1-(5-ethylpyrimidin-2-yl)piperidin-4-yl)methoxy)phenyl)-N,N-bis(2-hydroxyethyl)cyclohex-3-enecarboxamide], the EC50 was 24 nM under setting [1] and at most 50 nM (read-out: EC50 value). `CC(C)c1noc(N2CCC(COc3ccc(C4=CCC(C(=O)N5CCC(O)CC5)CC4)cc3)CC2)n1` (stereo not shown) [Example 182, (4-hydroxypiperidin-1-yl)(4-(4-((1-(3-isopropyl-1,2,4-oxadiazol-5-yl)piperidin-4-yl)methoxy)phenyl)cyclohex-3-enyl)methanone]: the EC50 under setting [1] turned out to be 27 nM and the EC50 (read-out: EC50 value) is at most 50 nM. On to `CC(C)c1noc(N2CCC(COc3ccc(C4=CCC(C(=O)N5CCC(CO)CC5)CC4)cc3)CC2)n1` (stereo not shown) [Example 183, (4-(hydroxymethyl)piperidin-1-yl)(4-(4-((1-(3-isopropyl-1,2,4-oxadiazol-5-yl)piperidin-4-yl)methoxy)phenyl)cyclohex-3-enyl)methanone], for which the EC50 reads like this: under setting [1], 12 nM; (read-out: EC50 value) at most 50 nM.

As to `CC(C)c1noc(N2CCC(COc3ccc(C4=CCC(C(=O)N5CCC(CCO)CC5)CC4)cc3)CC2)n1` (stereo not shown) [Example 186, (4-(2-hydroxyethyl)piperidin-1-yl)(4-(4-((1-(3-isopropyl-1,2,4-oxadiazol-5-yl)piperidin-4-yl)methoxy)phenyl)cyclohex-3-enyl)methanone], the EC50 (read-out: EC50 value) was at most 50 nM. Take `CC(C)(C)OC(=O)N1CCC(COc2ccc(C3=CCC(C(=O)NC4CCCC4)CC3)cc2)CC1` (stereo not shown) [Example 195, tert-butyl 4-((4-(4-(cyclopentylcarbamoyl)cyclohex-1-enyl)phenoxy)methyl)piperidine-1-carboxylate]: the EC50 runs as follows: under setting [1], 28 nM; (read-out: EC50 value) at most 50 nM. Consider `CCc1cnc(N2CCC(COc3ccc(C4=CCC(C(=O)N(C)OC)CC4)cc3)CC2)nc1` (stereo not shown) [Example 197, 4-(4-((1-(5-ethylpyrimidin-2-yl)piperidin-4-yl)methoxy)phenyl)-N-methoxy-N-methylcyclohex-3-enecarboxamide], for which the EC50 by setting is: under setting [1], 18 nM; (read-out: EC50 value) at most 50 nM. `CC(C)(C)OC(=O)N1CCC(COc2ccc(C3=CCC(C(=O)N4CCCC4)CC3)cc2)CC1` (stereo not shown) [Example 202, tert-butyl 4-((4-(4-(pyrrolidine-1-carbonyl)cyclohex-1-enyl)phenoxy)methyl)piperidine-1-carboxylate]: the concentration for a half-maximal effect (EC50) is 24 nM under setting [1] and at most 50 nM (read-out: EC50 value). `CCN1CCN(C(=O)C2CC=C(c3ccc(OCC4CCN(C(=O)OC(C)(C)C)CC4)cc3)CC2)CC1` (stereo not shown) [Example 203, tert-butyl 4-((4-(4-(4-ethylpiperazine-1-carbonyl)cyclohex-1-enyl)phenoxy)methyl)piperidine-1-carboxylate]: the EC50 under setting [1] was 37 nM.

With `CC(C)c1noc(N2CCC(COc3ccc(C4=CCC(C(=O)N5CCc6ccccc6C5C)CC4)cc3)CC2)n1` (stereo not shown) [Example 213, (4-(4-((1-(3-isopropyl-1,2,4-oxadiazol-5-yl)piperidin-4-yl)methoxy)phenyl)cyclohex-3-enyl)(1-methyl-3,4-dihydroisoquinolin-2(1H)-yl)methanone], the EC50 reads like this: under setting [1], 24 nM; (read-out: EC50 value) at most 50 nM. The matching figures for `CCc1cnc(N2CCC(COc3ccc(C4=CCC(C(=O)N5CCC(N6CCOCC6)CC5)CC4)cc3)CC2)nc1` (stereo not shown) [Example 220, (4-(4-((1-(5-ethylpyrimidin-2-yl)piperidin-4-yl)methoxy)phenyl)cyclohex-3-enyl)(4-morpholinopiperidin-1-yl)methanone]: 40 nM and at most 50 nM. `CON(C)C(=O)C1CC=C(c2ccc(OCC3CCN(C(=O)OC(C)(C)C)CC3)cc2)CC1` (stereo not shown) [Example 223, tert-butyl 4-((4-(4-(methoxy(methyl)carbamoyl)cyclohex-1-enyl)phenoxy)methyl)piperidine-1-carboxylate]: the EC50 under setting [1] was 25 nM and the half-maximal effective concentration (EC50) (read-out: EC50 value) was at most 50 nM. Regarding `CC(C)(C)OC(=O)N1CCC(COc2ccc(C3=CCC(C(=O)N4CC=CC4)CC3)cc2)CC1` (stereo not shown) [Example 224, tert-butyl 4-((4-(4-(2,5-dihydro-1H-pyrrole-1-carbonyl)cyclohex-1-enyl)phenoxy)methyl)piperidine-1-carboxylate], the EC50 was 38 nM under setting [1] and at most 50 nM (read-out: EC50 value). `CC(C)(C)OC(=O)N1CCC(COc2ccc(C3=CCC(C(=O)N4CCC(O)CC4)CC3)cc2)CC1` (stereo not shown) [Example 225, tert-butyl 4-((4-(4-(4-hydroxypiperidine-1-carbonyl)cyclohex-1-enyl)phenoxy)methyl)piperidine-1-carboxylate]: the EC50 reads like this: under setting [1], 22 nM; (read-out: EC50 value) at most 50 nM. For `CC(C)(C)OC(=O)N1CCC(COc2ccc(C3=CCC(C(=O)N4CCC(CO)CC4)CC3)cc2)CC1` (stereo not shown) [Example 226, tert-butyl 4-((4-(4-(4-(hydroxymethyl)piperidine-1-carbonyl)cyclohex-1-enyl)phenoxy)methyl)piperidine-1-carboxylate], the EC50 under setting [1] came to 14 nM and the EC50 (read-out: EC50 value) is at most 50 nM.

Consider `CCc1cnc(N2CCC(COc3ccc(C4=CCC(C(=O)N5CCC6(C=Cc7ccccc76)CC5)CC4)cc3)CC2)nc1` (stereo not shown) [Example 228, (4-(4-((1-(5-ethylpyrimidin-2-yl)piperidin-4-yl)methoxy)phenyl)cyclohex-3-enyl)(spiro[indene-1,4′-piperidin]-1′-yl)methanone], for which the EC50 by setting is: under setting [1], 8 nM; (read-out: EC50 value) at most 50 nM.

By EC50 is commonly meant the concentration giving half of the maximal effect.
